Literature values as cited in article PMC7673724 (Science Advances, 2020).

System: Rubisco
Details: control used to normalize array signal (one unit of binding)

Binding to Rubisco of the positive control peptide: known to bind to Rubisco
Sequence: TRSVLPANWRQELESLRN [control EPYC1 peptide]
